Measured values from PMC4349132 (Medchemcomm, 2014).

How the values were obtained:
[1] = Henderson–Hasselbalch equation, assay conditions pH 8
[2] = biological target: GLP (G9a-like protein, EHMT1) (Homo sapiens, UniProt Q9H9B1); details: compared with G9a
G9a = G9a (Homo sapiens, UniProt Q96KQ7); details: SPA assay
EZH2 = EZH2 (Homo sapiens, UniProt Q15910); details: at the highest concentrations surveyed (50 μM)
SETD2 = SETD2 (Homo sapiens, UniProt Q9BYW2); details: at the highest concentrations surveyed (50 μM)
Sequence of SETD2 (Q9BYW2 whole entry, species assumed): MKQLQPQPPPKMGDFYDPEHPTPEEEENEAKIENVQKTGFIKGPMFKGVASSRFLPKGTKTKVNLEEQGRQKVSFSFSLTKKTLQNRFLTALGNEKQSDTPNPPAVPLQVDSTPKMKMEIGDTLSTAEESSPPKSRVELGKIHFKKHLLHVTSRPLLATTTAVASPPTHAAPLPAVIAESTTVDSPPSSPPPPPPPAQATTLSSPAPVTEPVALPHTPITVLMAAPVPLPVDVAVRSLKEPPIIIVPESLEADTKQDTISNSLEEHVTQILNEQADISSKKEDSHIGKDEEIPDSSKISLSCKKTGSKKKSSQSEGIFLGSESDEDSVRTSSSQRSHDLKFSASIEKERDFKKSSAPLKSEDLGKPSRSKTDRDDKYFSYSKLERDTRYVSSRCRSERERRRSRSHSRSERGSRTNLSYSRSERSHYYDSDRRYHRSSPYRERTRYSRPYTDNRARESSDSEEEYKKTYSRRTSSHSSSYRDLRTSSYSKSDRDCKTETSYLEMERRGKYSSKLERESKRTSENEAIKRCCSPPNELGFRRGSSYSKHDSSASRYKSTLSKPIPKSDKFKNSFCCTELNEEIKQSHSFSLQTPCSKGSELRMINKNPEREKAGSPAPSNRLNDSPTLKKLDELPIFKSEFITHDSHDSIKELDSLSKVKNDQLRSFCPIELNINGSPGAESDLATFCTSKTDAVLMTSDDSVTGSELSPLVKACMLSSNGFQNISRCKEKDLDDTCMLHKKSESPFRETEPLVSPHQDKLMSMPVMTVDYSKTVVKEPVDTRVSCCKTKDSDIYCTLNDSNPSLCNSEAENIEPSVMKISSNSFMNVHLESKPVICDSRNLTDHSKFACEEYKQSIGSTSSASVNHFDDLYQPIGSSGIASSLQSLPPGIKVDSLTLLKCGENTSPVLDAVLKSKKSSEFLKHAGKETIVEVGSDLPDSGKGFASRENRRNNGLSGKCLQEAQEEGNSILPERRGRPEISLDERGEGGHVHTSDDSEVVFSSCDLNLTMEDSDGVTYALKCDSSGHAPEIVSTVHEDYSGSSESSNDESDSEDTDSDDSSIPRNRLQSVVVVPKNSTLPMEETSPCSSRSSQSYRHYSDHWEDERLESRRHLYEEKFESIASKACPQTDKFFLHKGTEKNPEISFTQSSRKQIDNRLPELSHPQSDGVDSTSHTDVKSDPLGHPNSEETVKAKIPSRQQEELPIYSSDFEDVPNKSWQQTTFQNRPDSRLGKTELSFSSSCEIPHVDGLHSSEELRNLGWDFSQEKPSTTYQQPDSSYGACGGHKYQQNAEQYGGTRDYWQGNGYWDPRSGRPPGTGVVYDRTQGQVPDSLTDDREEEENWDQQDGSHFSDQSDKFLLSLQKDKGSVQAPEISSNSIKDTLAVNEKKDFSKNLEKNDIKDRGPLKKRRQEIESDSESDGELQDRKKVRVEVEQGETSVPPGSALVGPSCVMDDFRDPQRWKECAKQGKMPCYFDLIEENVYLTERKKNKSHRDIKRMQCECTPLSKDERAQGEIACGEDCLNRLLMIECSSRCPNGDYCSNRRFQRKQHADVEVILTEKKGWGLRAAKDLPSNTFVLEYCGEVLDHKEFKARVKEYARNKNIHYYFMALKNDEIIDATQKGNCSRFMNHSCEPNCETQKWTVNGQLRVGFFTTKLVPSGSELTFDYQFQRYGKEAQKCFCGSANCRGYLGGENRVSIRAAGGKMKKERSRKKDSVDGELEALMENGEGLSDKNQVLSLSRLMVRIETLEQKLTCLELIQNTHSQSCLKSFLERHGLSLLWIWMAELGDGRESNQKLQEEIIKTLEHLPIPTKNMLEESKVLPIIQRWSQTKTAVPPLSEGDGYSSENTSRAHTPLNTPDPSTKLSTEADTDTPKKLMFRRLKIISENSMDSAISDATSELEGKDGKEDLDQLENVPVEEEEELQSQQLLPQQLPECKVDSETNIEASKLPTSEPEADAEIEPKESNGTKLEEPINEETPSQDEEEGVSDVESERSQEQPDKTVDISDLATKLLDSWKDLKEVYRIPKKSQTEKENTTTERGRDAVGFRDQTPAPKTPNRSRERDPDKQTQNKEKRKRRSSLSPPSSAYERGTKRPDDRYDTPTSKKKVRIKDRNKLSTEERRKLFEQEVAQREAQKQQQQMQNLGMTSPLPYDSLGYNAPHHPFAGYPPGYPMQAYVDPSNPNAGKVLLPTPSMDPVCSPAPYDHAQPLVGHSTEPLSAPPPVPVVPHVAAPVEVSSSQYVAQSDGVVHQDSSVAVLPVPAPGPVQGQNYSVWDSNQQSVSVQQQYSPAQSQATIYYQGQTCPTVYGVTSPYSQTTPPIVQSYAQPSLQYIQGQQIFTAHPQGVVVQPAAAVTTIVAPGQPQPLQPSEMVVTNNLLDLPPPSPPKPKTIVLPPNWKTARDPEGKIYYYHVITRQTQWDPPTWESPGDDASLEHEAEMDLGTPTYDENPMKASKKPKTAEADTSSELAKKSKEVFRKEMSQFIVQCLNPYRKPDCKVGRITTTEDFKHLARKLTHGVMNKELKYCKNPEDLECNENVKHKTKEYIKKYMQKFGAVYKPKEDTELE

[3] = test system: all other methyltransferases in the panel; details: panel other than G9a, GLP, SETD2, EZH2

Sequence of GLP (G9a-like protein, EHMT1) (Q9H9B1 whole entry): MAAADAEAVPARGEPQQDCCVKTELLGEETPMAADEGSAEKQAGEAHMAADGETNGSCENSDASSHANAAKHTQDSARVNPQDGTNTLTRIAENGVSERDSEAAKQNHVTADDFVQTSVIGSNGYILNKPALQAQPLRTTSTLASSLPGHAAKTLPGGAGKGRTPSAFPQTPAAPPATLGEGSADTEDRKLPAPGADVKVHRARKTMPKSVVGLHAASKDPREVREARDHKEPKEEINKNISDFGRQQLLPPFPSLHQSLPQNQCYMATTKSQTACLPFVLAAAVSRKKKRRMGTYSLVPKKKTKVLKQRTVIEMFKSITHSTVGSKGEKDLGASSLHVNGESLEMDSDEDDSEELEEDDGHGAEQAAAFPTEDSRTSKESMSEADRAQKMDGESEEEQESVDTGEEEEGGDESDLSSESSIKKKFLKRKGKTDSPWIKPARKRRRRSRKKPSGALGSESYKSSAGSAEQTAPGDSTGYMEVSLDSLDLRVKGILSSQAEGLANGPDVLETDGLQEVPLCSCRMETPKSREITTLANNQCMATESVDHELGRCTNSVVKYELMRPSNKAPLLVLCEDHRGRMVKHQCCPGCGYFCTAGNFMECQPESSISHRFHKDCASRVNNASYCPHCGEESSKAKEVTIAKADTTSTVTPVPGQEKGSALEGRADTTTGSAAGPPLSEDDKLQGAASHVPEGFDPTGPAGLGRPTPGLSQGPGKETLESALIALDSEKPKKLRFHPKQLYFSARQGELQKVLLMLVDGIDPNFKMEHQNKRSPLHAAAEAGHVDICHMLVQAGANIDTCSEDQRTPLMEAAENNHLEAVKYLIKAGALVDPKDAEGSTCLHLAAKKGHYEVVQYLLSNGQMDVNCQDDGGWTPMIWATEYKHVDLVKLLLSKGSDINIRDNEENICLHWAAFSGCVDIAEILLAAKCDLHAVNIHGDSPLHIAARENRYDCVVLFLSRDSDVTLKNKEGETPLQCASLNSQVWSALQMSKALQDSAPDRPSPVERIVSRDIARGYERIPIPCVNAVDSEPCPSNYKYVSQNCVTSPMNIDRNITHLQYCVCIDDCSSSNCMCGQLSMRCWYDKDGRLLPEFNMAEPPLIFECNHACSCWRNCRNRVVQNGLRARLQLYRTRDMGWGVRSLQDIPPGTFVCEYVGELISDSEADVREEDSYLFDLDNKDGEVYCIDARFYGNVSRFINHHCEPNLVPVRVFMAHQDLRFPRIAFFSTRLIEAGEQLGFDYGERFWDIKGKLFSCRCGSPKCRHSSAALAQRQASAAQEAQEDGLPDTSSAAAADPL
Sequence of G9a (Q96KQ7 whole entry): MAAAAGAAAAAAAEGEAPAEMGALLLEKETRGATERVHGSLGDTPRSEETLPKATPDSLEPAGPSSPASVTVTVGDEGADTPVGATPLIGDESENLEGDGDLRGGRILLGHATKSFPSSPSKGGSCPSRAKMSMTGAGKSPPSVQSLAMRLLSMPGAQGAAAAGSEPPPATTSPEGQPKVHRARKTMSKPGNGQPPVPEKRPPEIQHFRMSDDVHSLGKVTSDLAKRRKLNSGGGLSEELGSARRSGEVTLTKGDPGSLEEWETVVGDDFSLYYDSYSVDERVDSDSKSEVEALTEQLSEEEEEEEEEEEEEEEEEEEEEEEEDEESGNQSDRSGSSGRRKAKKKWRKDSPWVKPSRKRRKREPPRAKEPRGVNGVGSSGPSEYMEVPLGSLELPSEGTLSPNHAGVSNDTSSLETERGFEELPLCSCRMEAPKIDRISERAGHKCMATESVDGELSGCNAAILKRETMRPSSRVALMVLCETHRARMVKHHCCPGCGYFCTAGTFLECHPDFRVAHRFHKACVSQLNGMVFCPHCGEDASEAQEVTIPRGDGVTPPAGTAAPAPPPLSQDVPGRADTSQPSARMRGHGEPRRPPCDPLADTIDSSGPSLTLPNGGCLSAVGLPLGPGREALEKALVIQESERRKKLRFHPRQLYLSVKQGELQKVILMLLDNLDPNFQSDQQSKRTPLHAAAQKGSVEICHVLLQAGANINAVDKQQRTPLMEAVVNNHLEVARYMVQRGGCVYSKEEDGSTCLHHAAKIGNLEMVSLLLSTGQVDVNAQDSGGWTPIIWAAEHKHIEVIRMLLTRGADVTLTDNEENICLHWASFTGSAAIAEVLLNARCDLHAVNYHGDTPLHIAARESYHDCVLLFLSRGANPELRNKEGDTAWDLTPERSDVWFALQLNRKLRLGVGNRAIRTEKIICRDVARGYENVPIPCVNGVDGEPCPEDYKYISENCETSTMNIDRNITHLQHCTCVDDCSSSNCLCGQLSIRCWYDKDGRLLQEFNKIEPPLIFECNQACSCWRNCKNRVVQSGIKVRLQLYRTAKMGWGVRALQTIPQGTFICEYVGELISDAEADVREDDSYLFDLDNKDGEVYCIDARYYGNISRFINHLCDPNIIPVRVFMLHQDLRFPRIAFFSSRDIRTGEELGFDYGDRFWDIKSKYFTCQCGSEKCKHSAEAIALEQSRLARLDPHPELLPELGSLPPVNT

N-1 protonated form [1] [%] | activity against GLP (in words) [2] | G9a inhibitory activity (in words) (G9a) | activity against EZH2 (in words) (EZH2) | activity against SETD2 (in words) (SETD2) | Compound | activity against all other methyltransferases in the panel (in words) [3]
8.0 | dual G9a/GLP activity |  |  |  | COc1cc2nc(N3CCCN(C)CC3)nc(NC3CCN(Cc4ccccc4)CC3)c2cc1OC [Compound 1, BIX-01294, reference compound] | 
96.9 | equipotent against G9a and GLP | significant activity | moderate inhibitory activity | moderate inhibitory activity | COc1cc2nc(N3CCCN(C)CC3)cc(NC3CCN(Cc4ccccc4)CC3)c2cc1OC [Compound 41] | inactive
 | equipotent against G9a and GLP | significant activity | moderate inhibitory activity | moderate inhibitory activity | COc1cc2nc(N3CCN(C)CC3)cc(NC3CCN(Cc4ccccc4)CC3)c2cc1OC [Compound 42] | inactive
